In ChEMBL document CHEMBL1123387 (J Med Chem, 1986):
Square brackets hold non-standard residues; d marks the D form. Peptide text beside a SMILES is read from it. * marks the point of attachment. Sta = CC(C)C[C@H](N)[C@@H](O)CC(=O)O; Isovaleryl = CC(C)CC(=O)*; NHIsopentyl = CC(C)CCN*; Boc = CC(C)(C)OC(=O)*

Columns and labels:
Cathepsin D = biological target: T1, Cathepsin D (Bos taurus, UniProt P80209); assay: Inhibition of cathepsin D.
T1 sequence (P80209 whole entry): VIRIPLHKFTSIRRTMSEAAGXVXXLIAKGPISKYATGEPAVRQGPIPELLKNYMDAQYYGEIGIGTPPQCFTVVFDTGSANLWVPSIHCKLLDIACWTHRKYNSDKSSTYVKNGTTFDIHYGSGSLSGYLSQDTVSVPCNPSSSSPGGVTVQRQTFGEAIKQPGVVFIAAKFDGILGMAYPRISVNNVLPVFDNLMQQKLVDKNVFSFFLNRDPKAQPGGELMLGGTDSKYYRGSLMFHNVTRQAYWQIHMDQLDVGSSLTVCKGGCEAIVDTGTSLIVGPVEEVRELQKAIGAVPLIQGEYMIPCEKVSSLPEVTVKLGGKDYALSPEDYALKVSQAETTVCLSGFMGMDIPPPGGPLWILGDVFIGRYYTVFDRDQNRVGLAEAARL

Pepsin A = Pepsin A (Sus scrofa, UniProt P00791); assay: Compound was tested for inhibition of pepsin.
Chain of Pepsin A (P00791 whole entry): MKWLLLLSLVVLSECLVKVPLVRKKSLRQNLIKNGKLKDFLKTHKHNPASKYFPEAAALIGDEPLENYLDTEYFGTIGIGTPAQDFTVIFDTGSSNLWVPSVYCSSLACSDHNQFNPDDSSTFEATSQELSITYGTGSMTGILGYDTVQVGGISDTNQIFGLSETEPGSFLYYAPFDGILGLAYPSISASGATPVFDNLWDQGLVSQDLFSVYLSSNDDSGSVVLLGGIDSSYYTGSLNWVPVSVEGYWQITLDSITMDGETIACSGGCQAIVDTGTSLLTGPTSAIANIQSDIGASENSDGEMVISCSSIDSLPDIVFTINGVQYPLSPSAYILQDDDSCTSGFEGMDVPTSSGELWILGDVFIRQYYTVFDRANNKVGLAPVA

Ki (Cathepsin D)	Ki (Pepsin A)	SMILES
3.7 nM		CC(C)CCNC(=O)[C@H](C)NC(=O)C[C@H](O)[C@H](CC(C)C)NC(=O)[C@@H](NC(=O)[C@@H](NC(=O)CC(C)C)C(C)C)C(C)C
1.1 nM		CC(C)CCNC(=O)[C@H](C)NC(=O)C[C@H](O)[C@H](CC(C)C)NC(=O)[C@@H](NC(=O)[C@@H](NC(=O)OC(C)(C)C)C(C)C)C(C)C
120 nM		CCC(CC)C(=O)N[C@H](C(=O)N[C@@H](CC(C)C)[C@@H](O)CC(=O)N[C@@H](C)C(=O)NCCC(C)C)C(C)C
590 nM		CC(C)CCNC(=O)[C@H](C)NC(=O)C[C@H](O)[C@H](CC(C)C)NC(=O)[C@@H](NC(=O)C(C)C)C(C)C
620 nM		CC(C)CCNC(=O)[C@H](C)NC(=O)C[C@H](O)[C@H](CC(C)C)NC(=O)[C@@H](NC(=O)OC(C)C)C(C)C
2700 nM		CC(C)CCNC(=O)[C@H](C)NC(=O)C[C@H](O)[C@H](CC(C)C)NC(=O)[C@@H](NC(=O)OC(C)(C)C)C(C)C
230 nM		CCC(C)C(=O)N[C@H](C(=O)N[C@@H](CC(C)C)[C@@H](O)CC(=O)N[C@@H](C)C(=O)NCCC(C)C)C(C)C (stereo partly specified)
220 nM		CC(C)CCNC(=O)[C@H](C)NC(=O)C[C@H](O)[C@H](CC(C)C)NC(=O)[C@@H](NC(=O)CC(C)C)C(C)C
52 nM		CC(C)CCNC(=O)[C@H](C)NC(=O)C[C@H](O)[C@@H](Cc1ccccc1)NC(=O)[C@H](NC(=O)CC(C)C)C(C)C
1070 nM		CC(C)CCNC(=O)[C@H](C)NC(=O)C[C@H](O)[C@H](Cc1ccccc1)NC(=O)[C@H](NC(=O)CC(C)C)C(C)C
4860 nM		CC(C)CCNC(=O)[C@H](C)NC(=O)C[C@H](O)[C@@H](Cc1ccccc1)NC(=O)[C@@H](NC(=O)OC(C)(C)C)C(C)C
445 nM		CC(C)CCNC(=O)[C@H](C)NC(=O)C[C@@H](O)[C@@H](CC(C)C)NC(=O)[C@@H](NC(=O)[C@@H](NC(=O)OC(C)(C)C)C(C)C)C(C)C
> 100 nM		CC(C)CCNC(=O)[C@H](C)NC(=O)C[C@H](O)[C@@H](CC(C)C)NC(=O)[C@@H](NC(=O)[C@@H](NC(=O)CC(C)C)C(C)C)C(C)C
370 nM		CC(C)CCNC(=O)[C@H](C)NC(=O)C[C@H](O)[C@H](Cc1ccccc1)NC(=O)[C@@H](NC(=O)OC(C)(C)C)C(C)C
1400 nM		CC(C)CCNC(=O)[C@H](C)NC(=O)C[C@@H](O)[C@@H](CC(C)C)NC(=O)[C@@H](NC(=O)CC(C)C)C(C)C
214 nM		CC(C)CCNC(=O)[C@H](C)NC(=O)C[C@H](C)[C@@H](CC(C)C)NC(=O)[C@@H](NC(=O)[C@@H](NC(=O)CC(C)C)C(C)C)C(C)C
400 nM		CC(C)CCNC(=O)[C@H](C)NC(=O)C[C@H](C)[C@H](CC(C)C)NC(=O)[C@@H](NC(=O)[C@@H](NC(=O)CC(C)C)C(C)C)C(C)C
2100 nM		CC(C)CCNC(=O)[C@H](C)NC(=O)C[C@H](O)[C@@H](CC(C)C)NC(=O)[C@@H](NC(=O)CC(C)C)C(C)C

Ki (Cathepsin D)	Ki (Pepsin A)	SMILES
930 nM		CC(C)CCNC(=O)[C@H](C)NC(=O)C[C@H](C)[C@H](Cc1ccccc1)NC(=O)[C@@H](NC(=O)OC(C)(C)C)C(C)C
95 nM		CC(C)CCNC(=O)[C@H](C)NC(=O)C[C@H](O)[C@@H](Cc1ccccc1)NC(=O)[C@@H](NC(=O)[C@@H](NC(=O)OC(C)(C)C)C(C)C)C(C)C
2.1 nM		CC(C)CCNC(=O)[C@H](C)NC(=O)C[C@H](O)[C@H](Cc1ccccc1)NC(=O)[C@@H](NC(=O)[C@@H](NC(=O)OC(C)(C)C)C(C)C)C(C)C
100 nM		CC(C)CCNC(=O)[C@H](C)NC(=O)C[C@H](O)[C@@H](Cc1ccccc1)NC(=O)[C@@H](NC(=O)[C@@H](NC(=O)CC(C)C)C(C)C)C(C)C
1 nM		CC(C)CCNC(=O)[C@H](C)NC(=O)C[C@H](O)[C@H](Cc1ccccc1)NC(=O)[C@@H](NC(=O)[C@@H](NC(=O)CC(C)C)C(C)C)C(C)C
25 nM		CC(C)CCNC(=O)[C@H](C)NC(=O)CC(=O)[C@H](CC(C)C)NC(=O)[C@@H](NC(=O)[C@@H](NC(=O)CC(C)C)C(C)C)C(C)C
110 nM		CC(C)CCNC(=O)[C@H](C)NC(=O)C[C@H](O)[C@H](CC(C)C)NC(=O)[C@@H](NC(=O)C(C)(C)C)C(C)C
1800 nM		COC(=O)[C@H](C)NC(=O)C[C@H](O)[C@H](CC(C)C)NC(=O)[C@@H](NC(=O)CC(C)C)C(C)C
107 nM		CC(C)CCNC(=O)[C@H](C)NC(=O)C(C(=O)[C@H](CC(C)C)NC(=O)[C@@H](NC(=O)[C@@H](NC(=O)CC(C)C)C(C)C)C(C)C)[S+](C)C (stereo partly specified)
100 nM	3.3 nM	CC(C)CCNC(=O)[C@H](C)NC(=O)C[C@H](O)[C@H](CC(C)C)NC(=O)[C@H](C)NC(=O)[C@H](C)NC(=O)[C@H](Cc1ccccc1)NC(=O)OC(C)(C)C (Boc-FAA[Sta]A-NHIsopentyl)
60 nM	1.7 nM	COC(=O)[C@H](CC(C)C)NC(=O)[C@@H](NC(=O)[C@H](Cc1ccccc1)NC(=O)C[C@H](O)[C@H](CC(C)C)NC(=O)[C@H](C)NC(=O)[C@H](C)NC(=O)[C@H](Cc1ccccc1)NC(=O)OC(C)(C)C)C(C)C (Boc-FAA[Sta]FVL-OMe)
12 nM	2.8 nM	COC(=O)[C@H](CC(C)C)NC(=O)[C@@H](NC(=O)C[C@H](O)[C@H](CC(C)C)NC(=O)[C@H](C)NC(=O)[C@H](C)NC(=O)[C@H](Cc1ccccc1)NC(=O)OC(C)(C)C)C(C)C (Boc-FAA[Sta]VL-OMe)
12 nM	24 nM	COC(=O)[C@H](CC(C)C)NC(=O)[C@@H](NC(=O)[C@H](Cc1ccccc1)NC(=O)C[C@H](O)[C@H](CC(C)C)NC(=O)[C@H](C)NC(=O)[C@H](Cc1ccccc1)NC(=O)[C@H](Cc1ccccc1)NC(=O)OC(C)(C)C)C(C)C (Boc-FFA[Sta]FVL-OMe)
5.8 nM	0.64 nM	COC(=O)[C@H](CC(C)C)NC(=O)[C@@H](NC(=O)[C@H](Cc1ccccc1)NC(=O)C[C@H](O)[C@H](CC(C)C)NC(=O)[C@H](C)NC(=O)[C@H](CC(C)C)NC(=O)[C@H](Cc1ccccc1)NC(=O)OC(C)(C)C)C(C)C (Boc-FLA[Sta]FVL-OMe)
90 nM		COC(=O)[C@H](C)NC(=O)C[C@H](O)[C@H](CC(C)C)NC(=O)[C@@H](NC(=O)[C@@H](NC(=O)CC(C)C)C(C)C)C(C)C (Isovaleryl-VV[Sta]A-OMe)
23 nM		COC(=O)[C@H](Cc1ccccc1)NC(=O)[C@H](C)NC(=O)C[C@H](O)[C@H](CC(C)C)NC(=O)[C@@H](NC(=O)CC(C)C)C(C)C (Isovaleryl-V[Sta]AF-OMe)
43 nM		COC(=O)[C@H](CC(C)C)NC(=O)[C@H](C)NC(=O)C[C@H](O)[C@H](CC(C)C)NC(=O)[C@@H](NC(=O)CC(C)C)C(C)C (Isovaleryl-V[Sta]AL-OMe)
180 nM		CCOC(=O)C[C@H](O)[C@H](CC(C)C)NC(=O)[C@@H](NC(=O)[C@@H](NC(=O)CC(C)C)C(C)C)C(C)C (Isovaleryl-Val-Val-[Sta]-OEt)
